Measurements reported in ChEMBL document CHEMBL1201862, “PubChem BioAssay data set” (2004).
Activity calls are given as the source filed them.

Key:
[1] = target: T1, Eukaryotic translation initiation factor 2-alpha kinase 3 (Homo sapiens, UniProt Q9NZJ5); assay: Dose response cell-based high-throughput screening assay to measure PERK inhibition. [Related pubchem assays: 1416 ]; format: functional
[2] = target: T1, Eukaryotic translation initiation factor 2-alpha kinase 3; assay: Counterscreen assay for PERK inhibitors: Dose response cell-based high throughput screening assay to measure inhibition of PERK at 6 hours. [Related pubchem assays: 1522, 1416 ]; format: functional
[3] = target: T2, Histone-lysine N-methyltransferase NSD2 (Homo sapiens, UniProt O96028); format: biochemical
T2 sequence (O96028 whole entry): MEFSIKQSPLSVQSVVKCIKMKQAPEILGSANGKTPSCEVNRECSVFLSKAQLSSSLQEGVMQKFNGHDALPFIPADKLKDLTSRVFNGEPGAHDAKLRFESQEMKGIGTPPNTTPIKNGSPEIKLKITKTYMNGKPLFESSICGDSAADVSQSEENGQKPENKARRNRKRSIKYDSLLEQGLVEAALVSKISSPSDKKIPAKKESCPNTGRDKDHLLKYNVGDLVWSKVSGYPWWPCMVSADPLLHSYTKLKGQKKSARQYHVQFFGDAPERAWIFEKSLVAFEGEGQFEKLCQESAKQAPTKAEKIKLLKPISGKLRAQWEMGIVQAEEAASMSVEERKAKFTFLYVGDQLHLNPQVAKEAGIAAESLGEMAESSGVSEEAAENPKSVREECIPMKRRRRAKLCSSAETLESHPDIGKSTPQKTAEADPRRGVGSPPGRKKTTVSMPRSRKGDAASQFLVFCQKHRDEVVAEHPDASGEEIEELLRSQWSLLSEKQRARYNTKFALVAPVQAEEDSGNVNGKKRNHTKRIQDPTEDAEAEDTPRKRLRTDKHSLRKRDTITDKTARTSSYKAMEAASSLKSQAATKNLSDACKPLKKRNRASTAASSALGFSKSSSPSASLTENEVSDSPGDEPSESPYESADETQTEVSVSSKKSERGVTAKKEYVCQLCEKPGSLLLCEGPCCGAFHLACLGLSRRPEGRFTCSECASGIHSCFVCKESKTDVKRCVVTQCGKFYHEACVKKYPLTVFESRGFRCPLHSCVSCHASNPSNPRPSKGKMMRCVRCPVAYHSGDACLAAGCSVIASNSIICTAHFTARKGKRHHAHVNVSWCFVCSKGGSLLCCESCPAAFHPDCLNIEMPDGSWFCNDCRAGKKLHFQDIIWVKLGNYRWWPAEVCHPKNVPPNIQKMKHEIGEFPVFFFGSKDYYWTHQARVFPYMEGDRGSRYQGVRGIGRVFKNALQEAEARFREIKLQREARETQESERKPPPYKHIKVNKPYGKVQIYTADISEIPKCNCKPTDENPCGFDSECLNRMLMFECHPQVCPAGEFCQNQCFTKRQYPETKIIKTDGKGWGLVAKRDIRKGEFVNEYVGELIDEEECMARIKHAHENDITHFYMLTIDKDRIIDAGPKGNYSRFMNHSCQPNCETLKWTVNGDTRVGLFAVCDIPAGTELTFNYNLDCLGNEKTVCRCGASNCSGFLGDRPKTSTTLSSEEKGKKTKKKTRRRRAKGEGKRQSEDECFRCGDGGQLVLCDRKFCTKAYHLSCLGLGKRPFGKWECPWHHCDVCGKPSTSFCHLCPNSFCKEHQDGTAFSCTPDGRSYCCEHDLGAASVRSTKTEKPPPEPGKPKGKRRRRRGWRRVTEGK

[4] = target: Transitional endoplasmic reticulum ATPase (Homo sapiens, UniProt P55072, C522A); assay: C522A mutant p97 ATPase inhibitors, dose response, counter-screen for p97 inhibitor project, biochemical, luminescence (AID 1544)
[5] = HIV-1 Env-mediated cell fusion inhibitors, dose response, CCR5-tropic Env (AID 2279); format: functional
[6] = test system: HEK293; assay: NOD1 signaling inhibitors, primary screen, cell-based, luminescence, uHTS (AID 1578); format: functional; conditions: Homo sapiens
[7] = target: Nonstructural protein 1 (Influenza A virus, UniProt Q194T2); format: functional, Influenza A virus (A/California/07/2009(H1N1))
[8] = test system: HEK293; assay: NOD2 signaling inhibitors in MDP-stimulated cells, cell-based, uHTS, luminescence (AID 2001); format: functional; conditions: Homo sapiens
[9] = target: Transitional endoplasmic reticulum ATPase (Homo sapiens, UniProt P55072); assay: p97 ATPase inhibitors, dose response, biochemical (AID 1534)
[10] = test system: HEK293; assay: cells; format: functional, cell-based; conditions: Homo sapiens
[11] = target: Genome polyprotein (dengue virus type 2, UniProt P29990); assay: Dengue-2 NS5 methyltransferase inhibitors, primary screen, biochemical, confirmation dose response (AID 588689); format: functional
[12] = test system: Vero; assay: Vero cell cytotoxicity, cytotoxicity control for flavivirus capping enzyme inhibitors (AID 588742); format: functional; conditions: Chlorocebus sabaeus
[13] = target: Induced myeloid leukemia cell differentiation protein Mcl-1 (Homo sapiens, UniProt Q07820); format: functional
[14] = test system: HEK293; assay: cells; format: functional, cell-based; conditions: Homo sapiens; remark: listed apart in the source
[15] = test system: Streptococcus; assay: Luminescence Microorganism-Based Dose Response Follow up to Identify Compounds Cytotoxic to Streptococcus. [Related pubchem assays: 1677 (Project Summary), 1915, 1914, 1902 (Retest at Dose), 1900 (Counter Screen), 1662 (Primary HTS)]; format: functional, organism-based
[16] = target: Cytochrome P450 2D6 (Homo sapiens, UniProt P10635); assay: qHTS Assay for Inhibitors and Substrates of Cytochrome P450 2D6. [Related pubchem assays: 410 ]; format: ADME; conditions: read-out: Potency
[17] = target: Lysosomal acid glucosylceramidase (Homo sapiens, UniProt P04062); assay: Dose response cell-based high throughput screening assay to identify enhancers of beta-glucosidase activity. [Related pubchem assays: 784 ]; format: functional
[18] = target: T3, Insulin-degrading enzyme (Homo sapiens, UniProt P14735); assay: Dose Response: Fluorescence polarization-based cell-based high throughput dose response assay for inhibitors of insulin-degrading enzyme (IDE). [Related pubchem assays: 434962 (Primary screen (IDE inhibitors in singlicate)), 449730 (Counterscreen (Cytotoxicity in triplicate)), 435028 (Confirmation (IDE inhibitors in triplicate)), 434984 (Summary …; format: functional
T3 sequence (P14735 whole entry): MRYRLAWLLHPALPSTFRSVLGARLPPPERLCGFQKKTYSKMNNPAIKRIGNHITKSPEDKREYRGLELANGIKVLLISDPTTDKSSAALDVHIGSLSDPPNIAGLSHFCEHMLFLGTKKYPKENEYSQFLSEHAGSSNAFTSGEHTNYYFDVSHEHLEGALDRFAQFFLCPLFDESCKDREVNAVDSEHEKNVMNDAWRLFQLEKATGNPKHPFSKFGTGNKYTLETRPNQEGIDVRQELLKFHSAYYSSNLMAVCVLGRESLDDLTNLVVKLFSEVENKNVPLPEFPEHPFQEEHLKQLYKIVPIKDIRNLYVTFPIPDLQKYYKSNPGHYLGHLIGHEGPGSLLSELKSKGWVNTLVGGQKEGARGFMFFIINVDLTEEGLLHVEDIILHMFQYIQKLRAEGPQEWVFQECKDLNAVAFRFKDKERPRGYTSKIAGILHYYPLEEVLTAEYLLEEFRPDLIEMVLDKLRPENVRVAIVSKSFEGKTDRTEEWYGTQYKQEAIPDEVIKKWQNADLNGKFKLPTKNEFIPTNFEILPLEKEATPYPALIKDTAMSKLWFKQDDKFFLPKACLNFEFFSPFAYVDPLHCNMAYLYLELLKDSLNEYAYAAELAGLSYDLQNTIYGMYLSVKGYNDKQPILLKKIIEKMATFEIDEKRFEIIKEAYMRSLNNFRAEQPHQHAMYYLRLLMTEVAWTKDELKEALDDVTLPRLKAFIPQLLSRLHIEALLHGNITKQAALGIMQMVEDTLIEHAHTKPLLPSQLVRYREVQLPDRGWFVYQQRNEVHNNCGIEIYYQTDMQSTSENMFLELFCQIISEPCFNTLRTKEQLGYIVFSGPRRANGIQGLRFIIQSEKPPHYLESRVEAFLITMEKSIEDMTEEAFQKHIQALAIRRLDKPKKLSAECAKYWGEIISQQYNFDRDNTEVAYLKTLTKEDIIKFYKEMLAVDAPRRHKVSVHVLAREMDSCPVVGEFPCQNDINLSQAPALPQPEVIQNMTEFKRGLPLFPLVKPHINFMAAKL

[19] = enhancers of respiration in Yfh1-depleted yeast, dose response, Friedreich's ataxia, plus single-dose screen (AID 1465); format: functional;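 note: yeast depleted of Yfh1p frataxin homolog grown on glycerol needing respiration; WST-1 tetrazolium dye reduction as measure of cellular dehydrogenase metabolic activity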
[20] = Counterscreen for IDE inhibitors: Luminescence-based cell-based high throughput dose response assay to identify compounds that are cytotoxic to HEK cells. [Related pubchem assays: 434962 (Primary screen (IDE inhibitors in singlicate)), 449730 (Counterscreen (Cytotoxicity in triplicate)), 435028 (Confirmation (IDE inhibitors in triplicate)) …; format: functional; conditions: HEK293
[21] = target: T4, Leucine aminopeptidase (Plasmodium falciparum 3D7, UniProt Q8IL11); assay: P. falciparum M17LAP inhibitors, primary screen, biochemical, fluorogenic H-Leu-NHMec substrate, 1536-well (AID 1619); format: functional
T4 sequence (Q8IL11 whole entry): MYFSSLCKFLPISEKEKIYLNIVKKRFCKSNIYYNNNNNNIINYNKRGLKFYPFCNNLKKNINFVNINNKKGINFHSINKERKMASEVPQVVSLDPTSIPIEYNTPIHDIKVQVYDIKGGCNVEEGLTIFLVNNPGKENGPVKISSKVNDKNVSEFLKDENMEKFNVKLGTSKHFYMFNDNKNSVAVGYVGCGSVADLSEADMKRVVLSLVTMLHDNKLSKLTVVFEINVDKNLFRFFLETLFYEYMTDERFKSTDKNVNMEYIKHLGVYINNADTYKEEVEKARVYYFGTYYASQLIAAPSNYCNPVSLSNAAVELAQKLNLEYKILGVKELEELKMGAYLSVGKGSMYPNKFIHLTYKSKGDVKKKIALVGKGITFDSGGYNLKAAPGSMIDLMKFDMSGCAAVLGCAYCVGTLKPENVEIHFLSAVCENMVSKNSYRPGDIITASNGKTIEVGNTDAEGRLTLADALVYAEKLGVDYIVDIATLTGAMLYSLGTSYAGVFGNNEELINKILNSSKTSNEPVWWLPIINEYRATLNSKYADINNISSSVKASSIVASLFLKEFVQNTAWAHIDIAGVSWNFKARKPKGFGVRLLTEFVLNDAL

[22] = A Cell Based Secondary Assay To Explore Cytotoxicity of Compounds that Sensitize Mycobacterium Tuberculosis to Beta-Lactam Antibiotics.; format: functional
[23] = target: Melanin-concentrating hormone receptor 1 (Homo sapiens, UniProt Q99705); assay: Fluorescence-based counterscreen for antagonists of the G-protein coupled receptor 7 (GPR7): cell-based high throughput dose response assay to identify antagonists of the melanin-concentrating hormone receptor 1 (MCHR1).; format: functional
[24] = target: T5, Neuropeptides B/W receptor type 1 (Homo sapiens, UniProt P48145); assay: Fluorescence-based dose response cell-based high throughput screening assay to identify antagonists of the G-protein coupled receptor 7 (GPR7). [Related pubchem assays: 1952 (Screening assay (GPR7 antagonists).), 1880 (Summary AID.)]; format: functional
T5 sequence (P48145 whole entry): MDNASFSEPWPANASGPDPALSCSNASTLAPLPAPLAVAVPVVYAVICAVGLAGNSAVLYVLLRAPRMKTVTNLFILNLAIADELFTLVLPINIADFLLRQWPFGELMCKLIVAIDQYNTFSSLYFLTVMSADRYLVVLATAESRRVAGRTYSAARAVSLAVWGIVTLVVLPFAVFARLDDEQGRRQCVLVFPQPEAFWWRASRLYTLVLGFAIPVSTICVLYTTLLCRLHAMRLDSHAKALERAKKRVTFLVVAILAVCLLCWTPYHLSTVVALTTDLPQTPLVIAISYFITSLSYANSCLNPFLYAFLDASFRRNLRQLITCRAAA

[25] = cytotoxicity toward NIH3T3 fibroblasts, dose response, counter-screen, cell-based, ATP luminescence, mouse fibroblasts (AID 2010); format: functional;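 note: cells exposed to compound for about 90 hours before reading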
[26] = inhibitors of intracellular T. cruzi replication, confirmation, NIH3T3 host cells, beta-gal luminescence (AID 2044); format: functional, cell-based;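 note: intracellular parasites grown in NIH/3T3 mouse fibroblasts as host cells; luminescent beta-galactosidase reporter signal from transgenic T. cruzi replicating inside host cells; inhibitors lower the luminescence signal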

T1 sequence (Q9NZJ5 whole entry): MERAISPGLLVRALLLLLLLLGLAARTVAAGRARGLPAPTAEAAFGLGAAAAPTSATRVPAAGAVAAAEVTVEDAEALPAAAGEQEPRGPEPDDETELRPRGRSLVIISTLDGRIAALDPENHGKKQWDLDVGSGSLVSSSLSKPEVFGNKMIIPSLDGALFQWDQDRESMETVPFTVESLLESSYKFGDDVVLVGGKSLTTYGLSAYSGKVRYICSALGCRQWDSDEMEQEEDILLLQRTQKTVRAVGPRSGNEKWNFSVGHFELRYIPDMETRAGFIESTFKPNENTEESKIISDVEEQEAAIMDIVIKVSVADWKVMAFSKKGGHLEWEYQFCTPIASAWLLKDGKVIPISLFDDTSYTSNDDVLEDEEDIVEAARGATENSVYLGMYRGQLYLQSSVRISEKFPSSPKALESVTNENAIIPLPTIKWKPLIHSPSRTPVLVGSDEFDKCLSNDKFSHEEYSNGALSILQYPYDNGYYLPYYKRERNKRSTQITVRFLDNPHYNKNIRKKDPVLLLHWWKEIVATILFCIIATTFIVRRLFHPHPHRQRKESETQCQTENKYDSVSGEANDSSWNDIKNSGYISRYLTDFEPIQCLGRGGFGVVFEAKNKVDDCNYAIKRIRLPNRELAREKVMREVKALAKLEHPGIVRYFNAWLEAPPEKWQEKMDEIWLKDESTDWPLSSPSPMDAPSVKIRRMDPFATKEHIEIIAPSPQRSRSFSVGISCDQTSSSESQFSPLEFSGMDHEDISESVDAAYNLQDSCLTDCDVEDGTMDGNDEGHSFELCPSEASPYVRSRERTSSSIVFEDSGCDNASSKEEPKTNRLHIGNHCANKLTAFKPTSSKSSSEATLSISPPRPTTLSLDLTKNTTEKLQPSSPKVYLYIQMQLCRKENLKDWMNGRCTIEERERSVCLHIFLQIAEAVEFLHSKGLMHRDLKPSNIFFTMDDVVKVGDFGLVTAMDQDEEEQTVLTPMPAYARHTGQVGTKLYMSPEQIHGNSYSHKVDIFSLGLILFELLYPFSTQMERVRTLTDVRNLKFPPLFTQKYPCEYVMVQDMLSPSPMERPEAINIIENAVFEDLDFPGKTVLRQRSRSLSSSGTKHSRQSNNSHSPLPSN
Cytochrome P450 2D6, sequence (P10635 whole entry): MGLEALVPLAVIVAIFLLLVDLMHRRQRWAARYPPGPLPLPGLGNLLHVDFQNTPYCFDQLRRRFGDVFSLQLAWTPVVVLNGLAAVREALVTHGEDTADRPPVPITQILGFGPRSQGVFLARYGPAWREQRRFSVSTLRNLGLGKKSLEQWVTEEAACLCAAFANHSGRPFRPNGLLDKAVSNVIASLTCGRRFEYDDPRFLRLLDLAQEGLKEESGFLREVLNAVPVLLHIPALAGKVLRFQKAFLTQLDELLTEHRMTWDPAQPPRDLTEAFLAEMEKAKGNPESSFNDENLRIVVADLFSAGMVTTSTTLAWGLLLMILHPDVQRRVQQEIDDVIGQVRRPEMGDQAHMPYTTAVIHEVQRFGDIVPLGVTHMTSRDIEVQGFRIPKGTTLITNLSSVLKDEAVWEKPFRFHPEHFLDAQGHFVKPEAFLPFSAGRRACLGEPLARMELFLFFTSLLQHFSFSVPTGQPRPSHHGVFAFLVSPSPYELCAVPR
Genome polyprotein, sequence (P29990 2492-3391 limits assumed): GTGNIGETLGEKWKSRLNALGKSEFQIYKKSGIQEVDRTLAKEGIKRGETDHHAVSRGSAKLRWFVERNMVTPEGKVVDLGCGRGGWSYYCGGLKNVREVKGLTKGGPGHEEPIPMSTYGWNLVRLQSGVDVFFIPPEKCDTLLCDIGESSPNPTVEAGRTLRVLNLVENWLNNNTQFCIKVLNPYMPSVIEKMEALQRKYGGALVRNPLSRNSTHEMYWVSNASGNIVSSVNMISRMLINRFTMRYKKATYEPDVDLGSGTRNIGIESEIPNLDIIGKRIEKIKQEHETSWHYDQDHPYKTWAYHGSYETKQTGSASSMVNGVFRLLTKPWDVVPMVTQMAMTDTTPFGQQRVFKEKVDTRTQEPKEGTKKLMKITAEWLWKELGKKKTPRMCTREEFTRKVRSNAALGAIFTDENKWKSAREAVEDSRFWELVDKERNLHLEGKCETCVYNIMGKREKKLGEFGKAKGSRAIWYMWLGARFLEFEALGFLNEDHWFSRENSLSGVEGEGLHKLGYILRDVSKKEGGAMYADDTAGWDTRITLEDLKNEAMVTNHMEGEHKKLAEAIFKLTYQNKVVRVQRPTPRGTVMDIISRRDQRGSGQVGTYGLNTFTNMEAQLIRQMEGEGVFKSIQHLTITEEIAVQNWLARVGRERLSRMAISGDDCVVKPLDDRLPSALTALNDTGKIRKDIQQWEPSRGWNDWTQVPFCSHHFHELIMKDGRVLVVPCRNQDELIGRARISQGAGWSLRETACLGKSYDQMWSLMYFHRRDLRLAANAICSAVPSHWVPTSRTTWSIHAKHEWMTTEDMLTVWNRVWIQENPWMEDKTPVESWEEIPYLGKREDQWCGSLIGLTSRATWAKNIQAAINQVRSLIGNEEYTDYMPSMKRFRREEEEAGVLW
Lysosomal acid glucosylceramidase, sequence (P04062 whole entry): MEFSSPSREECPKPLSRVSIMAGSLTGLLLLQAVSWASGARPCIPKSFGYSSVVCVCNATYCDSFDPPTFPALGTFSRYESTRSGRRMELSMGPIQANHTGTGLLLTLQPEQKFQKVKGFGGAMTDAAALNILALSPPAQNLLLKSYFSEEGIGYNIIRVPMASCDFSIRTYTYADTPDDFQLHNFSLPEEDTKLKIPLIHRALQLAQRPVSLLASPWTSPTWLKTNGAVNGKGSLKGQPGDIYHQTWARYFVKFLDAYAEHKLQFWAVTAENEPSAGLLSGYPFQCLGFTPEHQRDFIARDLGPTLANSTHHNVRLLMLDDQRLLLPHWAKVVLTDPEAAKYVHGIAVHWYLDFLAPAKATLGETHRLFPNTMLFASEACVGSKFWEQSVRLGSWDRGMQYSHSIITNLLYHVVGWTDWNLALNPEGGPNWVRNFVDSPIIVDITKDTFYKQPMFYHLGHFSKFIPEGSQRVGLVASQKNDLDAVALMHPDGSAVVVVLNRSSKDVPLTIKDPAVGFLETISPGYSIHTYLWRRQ
Induced myeloid leukemia cell differentiation protein Mcl-1, sequence (Q07820 whole entry): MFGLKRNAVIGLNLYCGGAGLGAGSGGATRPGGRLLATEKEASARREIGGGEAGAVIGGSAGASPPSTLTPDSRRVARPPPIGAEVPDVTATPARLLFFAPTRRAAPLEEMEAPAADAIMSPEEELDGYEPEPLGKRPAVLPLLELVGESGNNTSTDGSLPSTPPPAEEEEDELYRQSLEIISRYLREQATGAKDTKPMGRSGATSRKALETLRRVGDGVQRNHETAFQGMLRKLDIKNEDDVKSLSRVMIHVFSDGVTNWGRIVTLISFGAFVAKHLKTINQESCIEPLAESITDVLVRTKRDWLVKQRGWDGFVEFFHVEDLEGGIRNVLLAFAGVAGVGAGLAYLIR
Transitional endoplasmic reticulum ATPase (Homo sapiens, UniProt P55072, C522A), sequence (P55072 2-806 C522A limits assumed): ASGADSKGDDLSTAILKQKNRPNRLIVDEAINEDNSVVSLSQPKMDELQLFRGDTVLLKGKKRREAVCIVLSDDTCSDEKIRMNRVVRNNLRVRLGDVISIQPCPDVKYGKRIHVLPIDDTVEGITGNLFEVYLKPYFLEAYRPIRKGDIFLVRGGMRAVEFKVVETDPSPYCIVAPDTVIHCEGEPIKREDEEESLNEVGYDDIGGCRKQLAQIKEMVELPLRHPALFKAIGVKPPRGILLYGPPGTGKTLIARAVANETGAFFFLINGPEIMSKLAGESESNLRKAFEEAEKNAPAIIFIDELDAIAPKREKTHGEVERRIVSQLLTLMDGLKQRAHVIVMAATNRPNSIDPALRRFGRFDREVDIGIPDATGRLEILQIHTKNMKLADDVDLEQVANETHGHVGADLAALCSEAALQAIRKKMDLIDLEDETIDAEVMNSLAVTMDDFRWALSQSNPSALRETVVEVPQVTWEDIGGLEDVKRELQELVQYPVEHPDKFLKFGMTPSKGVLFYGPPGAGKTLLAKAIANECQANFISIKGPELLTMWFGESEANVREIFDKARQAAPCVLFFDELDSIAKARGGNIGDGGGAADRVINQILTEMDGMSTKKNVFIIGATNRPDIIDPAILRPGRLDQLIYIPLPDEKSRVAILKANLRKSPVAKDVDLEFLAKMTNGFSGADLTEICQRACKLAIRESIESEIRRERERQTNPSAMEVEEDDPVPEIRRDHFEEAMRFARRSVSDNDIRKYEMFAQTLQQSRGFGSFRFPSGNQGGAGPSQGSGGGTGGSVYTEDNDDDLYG
Melanin-concentrating hormone receptor 1, sequence (Q99705 whole entry): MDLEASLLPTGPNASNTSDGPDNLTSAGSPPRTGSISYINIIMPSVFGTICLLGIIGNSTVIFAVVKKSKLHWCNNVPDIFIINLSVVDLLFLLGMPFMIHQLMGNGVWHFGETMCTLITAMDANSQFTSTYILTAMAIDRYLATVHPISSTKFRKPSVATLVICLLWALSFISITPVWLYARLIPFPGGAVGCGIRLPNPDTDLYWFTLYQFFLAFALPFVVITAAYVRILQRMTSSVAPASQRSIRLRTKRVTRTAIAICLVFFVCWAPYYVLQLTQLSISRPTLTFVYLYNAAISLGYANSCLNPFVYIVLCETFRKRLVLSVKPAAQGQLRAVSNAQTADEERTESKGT
Nonstructural protein 1, sequence (Q194T2 whole entry): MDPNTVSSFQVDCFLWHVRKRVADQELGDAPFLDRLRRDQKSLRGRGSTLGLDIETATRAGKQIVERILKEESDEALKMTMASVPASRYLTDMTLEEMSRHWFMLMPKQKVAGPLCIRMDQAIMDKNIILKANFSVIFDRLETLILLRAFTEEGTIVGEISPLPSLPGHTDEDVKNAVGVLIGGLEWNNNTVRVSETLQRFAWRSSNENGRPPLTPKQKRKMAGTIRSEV

Cc1cscc1NC(=O)/C=C/C(=O)O
EC50 [1]: > 55.7 µM (not active) | EC50 [2]: > 55.7 µM (not active)

CCn1nc([N+](=O)[O-])c(C(C#N)c2nc3cc(C(F)(F)F)ccc3s2)c(Cl)c1=O (stereo unspecified)
AC50 [3]: 19 µM (active) | IC50 [4]: > 50 µM (not active) | IC50 [5]: 11.9 µM (active) | EC50 [6]: 6.94 µM (active) | IC50 [7]: 19.9 µM (active) | IC50 [8]: 3.47 µM (inactive) | IC50 [9]: > 50 µM (not active) | IC50 [10]: 11 µM (active) | IC50 [11]: 57.5 µM (active) | CC50 [12]: > 40 µM (active) | IC50 [13]: 3.87 µM (active) | IC50 [14]: 2.78 µM (active)

CN(C)C1C(=O)C(C(N)=O)C(=O)C2(O)C(=O)C3C(=O)c4c(O)cccc4C(C)(O)C3CC12 (stereo unspecified)
EC50 [15]: 0.402 µM (active)

CCOC(=O)OCC1OC(C#Cc2ccccc2)C=CC1Oc1cccc(N(C)C)c1 (stereo unspecified)
AC50 [16]: 3.98 µM (inconclusive)

CCOC(=O)N1CCC2(CC1)C(C#N)=C(N)Oc1c2c(C)nn1-c1cccc(Cl)c1
EC50 [17]: > 10 µM (not active)

C=CCN1C=CC(=CC=C(C#N)C#N)C=C1
IC50 [18]: 10.4 µM (not active) | EC50 [19]: > 100 µM (active) | IC50 [20]: > 55.7 µM (not active) | IC50 [21]: 72.2 µM (active)

O=C(CSc1nnc(SCc2ccccc2)s1)N/N=C/c1ccc(Cl)cc1Cl
CC50 [22]: 38.4 µM (active)

CC(C)C(=O)N1CCN(c2ccccc2NC(=O)c2ccc([N+](=O)[O-])o2)CC1
IC50 [23]: 64.4 µM (not active) | IC50 [24]: > 43.8 µM (not active) | EC50 [25]: > 60 µM (not active) | EC50 [26]: 0.431 µM (active)
